Values quoted from earlier work in patent US6608222B2, “Bioactive conjugated linoleic acid glycerides and method of use” (Alpha Food Ingredients, Inc., priority 2000, dated 2003).

System: hamsters
Conditions: feeding studies with hamsters; compared with a composite group of CLA-FFA isomers

## CCCCCC/C=C/C=C\CCCCCCCC(=O)O [purified c-9, t-11 CLA-FFA, cis-9, trans-11-octadecadienoic acid]
  biological activity: not so biologically active as a composite group of CLA-FFA isomers
